Source: PubChem BioAssay AID449764 (Southern Research Specialized Biocontainment Screening …, 2010)

System: Mycobacterium tuberculosis H37Rv growth inhibition, no glycerol
Test: Mycobacterium tuberculosis H37Rv growth inhibition, no glycerol, confirmatory dose response (AID 449764);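 also: growth read after 7 days of incubation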
Conditions: for IC90: measured here: IC90 growth inhibition

Row | SMILES | IC50 | IC90
1 | Cn1ccnc1C(=O)C1CCCN(Cc2cn[nH]c2-c2ccc(-c3ccccc3)cc2)C1 (stereo not drawn) | 77.1 µM | 99.4 µM
2 | Cc1nn(-c2nc3ccccc3[nH]2)c(N)c1-c1ccc(Cl)cc1 | 3.72 µM | > 100 µM
3 | CCCCSCCCNC(=O)c1cn(CC)c2ccc(S(=O)(=O)N3CCOCC3)cc2c1=O | 44.3 µM | 50.8 µM
4 | COC(=O)CCn1c(C)cc(C(=O)COc2ccccc2C(N)=O)c1C | 10.9 µM | 14.8 µM
5 | COc1ccc(-c2nc(NC(=O)Cn3ccc(C(F)(F)F)n3)sc2C)cc1 | 44.6 µM | 50.4 µM
6 | COC(=O)CSc1ncnc2c1sc1nc3c(cc12)COC(C)(C)C3 | 5.81 µM | 8.03 µM
7 | O=C(Nc1ccc(OCC(F)(F)C(F)F)c(C(F)(F)F)c1)c1ccc(Cl)cc1 | 33.2 µM | 46.9 µM
8 | Cc1ccc2nc(N/N=C/c3ccccc3C#N)nc(-c3ccccc3)c2c1 | 91.1 µM | > 100 µM
9 | O=C(CCc1c[nH]c2ccccc12)N1CCN(S(=O)(=O)c2ccccc2)CC1 | 78.7 µM | > 100 µM
10 | Cn1/c(=N/NC(=O)c2cccc(OC(F)F)c2)sc2ccccc21 | 9.17 µM | 24.1 µM
11 | O=C(OCc1nc2ccccc2s1)c1ccc(Br)o1 | 33.5 µM | > 50 µM
12 | CN(CCCC1CCCC1)C(=O)CCc1nnc(-c2ccccc2)o1 | 16.9 µM | 28 µM
13 | O=c1c(C=NCCN2CCNCC2)c(O)n(C2CCCCC2)c(=O)n1C1CCCCC1 | 28.4 µM | 32.5 µM
14 | CN(C)c1ccc(CNc2nc(-c3ccccc3)nn2S(C)(=O)=O)cc1 | 14.2 µM | 26.5 µM
15 | O=C1CC(=C(c2ccccc2)c2ccccc2)C(=O)N1CCCCN1CCN(c2ccccc2)CC1 | 25.3 µM | 28.8 µM
16 | COC(=O)COc1ccc(-c2ccccc2)cc1C=O | 16.1 µM | 26 µM
17 | O=C(CCc1nnc(CCCc2ccccc2)o1)NCCCC1CCCC1 | 21.5 µM | 24.9 µM
18 | Cc1ccc(NC(=O)Cc2ccc(-c3ccccc3)cc2)nc1 | 86.6 µM | > 100 µM
19 | COc1ccc(-c2nnn(CC(=O)OC3CCCCC3)n2)cc1OC | 20.6 µM | > 100 µM
20 | COc1ccc(-c2cc(-c3ccccc3)c(C#N)c(S(C)=O)n2)cc1 (stereo not drawn) | 91.8 µM | > 100 µM
21 | Cc1oc(-c2cccc(Cl)c2)nc1CN1CCC(C(=O)N2CCN(c3ccccc3F)CC2)CC1 | 18.7 µM | 26.4 µM
22 | CCO[C@H]1OC(C(=O)NCc2nc3ccccc3[nH]2)=C[C@@H](c2csc3ccccc23)[C@@H]1CCCO | 36.5 µM | 49.2 µM

Row | SMILES | IC50 | IC90
23 | O=C(c1ccc(-c2ccccc2)c(F)c1)C1CCCN(C(=O)c2cncs2)C1 (stereo not drawn) | 32.5 µM | 49.4 µM
24 | Cc1ccc(NC(=O)Cn2ccsc2=N)c([N+](=O)[O-])c1 | 18.5 µM | 34.7 µM
25 | COc1ccccc1N1CCN(CCCCOc2cccc3ccccc23)CC1 | 33 µM | 43.5 µM
26 | C/C(O)=C\c1nc2ccccc2oc1=O | 0.75 µM | 0.89 µM
27 | Nc1cc([N+](=O)[O-])ccc1Nc1ccc(O)cc1 | 30.6 µM | 36.6 µM
28 | O=C(C=C=Nc1ccccc1)C(=O)N=C=Cc1ccccc1 | 12.4 µM | 20.5 µM
29 | O=C(NC(=S)Nc1ccc(N2CCCCC2)c(Cl)c1)c1cccs1 | 21.2 µM | 29.2 µM
30 | C/C(=N\NC(=O)COc1ccc(C)cc1Br)c1cc([N+](=O)[O-])cs1 | 24 µM | 26.4 µM
31 | Cc1cc(O)c2c(c1)C(=O)c1cc(O)cc(O)c1C2=O | 89 µM | > 100 µM
32 | CC(=O)c1c(C)n(C)c2ccc(OC(=O)c3ccc([N+](=O)[O-])cc3)cc12 | 19.8 µM | > 100 µM
33 | Cc1ccc(NC(=S)N(CCCN2CCCC2)Cc2cccn2Cc2ccc(Cl)cc2)cc1C | 75.5 µM | > 100 µM
34 | Cc1csc(NC(=S)Nc2cccc(Cl)c2)n1 | 4.42 µM | 6.91 µM
35 | On1onc2c3cc(-c4ccccc4)nc3ccc21 | < 0.2 µM | < 0.2 µM
36 | CC(=O)n1cc(N(C(=O)CCl)c2ccc(Cl)cc2)c2ccccc21 | 3.7 µM | 6.76 µM
37 | CCOc1ccc2nc(NC(=O)C34CC5CC(CC(NC(C)=O)(C5)C3)C4)sc2c1 | 23.2 µM | 38.4 µM
38 | Cc1ccc(C2=NNC3(CCOC(C)(C)C3)S2)cc1 (stereo not drawn) | 27.1 µM | 41.3 µM
39 | COc1cc(NC(=O)c2cnc(N)s2)cc(C(=O)Nc2cccc(C(F)(F)F)c2)c1 | 85.9 µM | > 100 µM
40 | CN1/C(=C\C(=O)C[n+]2ccc(C(=O)c3ccccc3)cc2)C(C)(C)c2ccccc21 | 13.3 µM | 21.1 µM
41 | S=c1nc[nH]c2nc[nH]c12 | 3.32 µM | 5.19 µM
42 | CCN(Cc1ccncc1)Cc1nc(-c2ccc(C(=O)OC)cc2)no1 | 34.2 µM | 53.6 µM
43 | CCc1c(C)sc2nc3c(C(=O)N4CCOCC4)cc(C(=O)c4cc(F)ccc4O)cn3c(=O)c12 | 82.2 µM | > 100 µM
44 | COC(=O)c1ccc(Cn2cc(C(F)(F)F)cc([N+](=O)[O-])c2=O)cc1 | 0.63 µM | > 100 µM

Row | SMILES | IC50 | IC90
45 | O=C(O)C1CC=CCC1C(=O)N1CCN(c2nc(-c3ccccc3Cl)c3cc(Br)ccc3n2)CC1 (stereo not drawn) | 43.2 µM | 68.8 µM
46 | COc1ccc(OC)c(CN2CCN(C(=O)CNC(=O)c3ccc(C(C)(C)C)cc3)CC2)c1 | 63.8 µM | 91.1 µM
47 | O=C(Nc1ccc2nsnc2c1)NC1CCCCC1 | 44.3 µM | > 100 µM
48 | CCC1(c2ccccc2)ON(c2c(Br)cccc2Br)C1=O (stereo not drawn) | 40.2 µM | 77.3 µM
49 | C=C(C)C1Cc2c(C)nn(-c3nc(C)cc(C)n3)c2C1 (stereo not drawn) | 8.78 µM | 22.1 µM
50 | CCCCOC(=O)CSc1nnc(-c2ccc(Cl)cc2Cl)o1 | < 0.2 µM | 7.21 µM
51 | Cc1ccc(NCCC(=O)c2ccc(Br)cc2)cc1 | 26.4 µM | 43.8 µM
52 | C=CCOc1ccccc1CN(C(=O)CCl)c1ccc2c(c1)OCO2 | 2.7 µM | 3.72 µM
53 | COc1ccc(N(CC(=O)Nc2ccccc2C(N)=O)S(=O)(=O)c2ccc(C)c([N+](=O)[O-])c2)cc1 | 96.9 µM | > 100 µM
54 | Cc1cc(C)n(-c2cc(C(C)(C)C)nc3c(-c4ccccc4)cnn23)n1 | 36.1 µM | 47.3 µM
55 | CCN(CC)c1ccc(N)cc1 | 8.96 µM | 11.2 µM
56 | CN(CCO)c1cc(Sc2nc3ccccc3s2)c2nonc2c1[N+](=O)[O-] | 74.4 µM | 95 µM
57 | CC(C)(C)c1ccc(C(O)CCCN2CCC(C(O)(c3ccccc3)c3ccccc3)CC2)cc1 (stereo not drawn) | 12 µM | 13.7 µM
58 | Cc1ccnc(Sc2ccc([N+](=O)[O-])cc2[N+](=O)[O-])n1 | 19.8 µM | 29.7 µM
59 | CCOc1cc(-c2c(C#N)c(=O)[nH]c3c2c(C)nn3-c2ccc(F)cc2)ccc1O | 4.87 µM | 8.73 µM
60 | O=C(Nc1nnc(-c2ccccc2)o1)c1cc(-c2cccs2)nc2ccccc12 | 1.76 µM | 2.94 µM
61 | CCOC(=O)c1nnc(-c2ccccc2)nc1Sc1ccccc1Cl | 90.6 µM | > 100 µM
62 | Cc1ccc2nc(=O)c(NNc3ccccc3)cnc2c1 | 35.3 µM | > 100 µM
63 | CSc1ccccc1OCc1cc(C(=O)N2CCC(Oc3cccnc3)CC2)no1 | 28.3 µM | 37.3 µM
64 | OCC1(Cc2cccc(Cl)c2)CCCN(Cc2ccc3cc(F)ccc3n2)C1 (stereo not drawn) | 38.2 µM | 54.6 µM
